For one series, the system named is Brain. In words: Permeability across brain in Tg2576 mouse at 100 mg/kg, po. The format is ADME, organism-based. Details: dose 100 mg/kg, route oral. The following applies: in vivo.
Series [1] is described as follows: Ratio of AUC in brain to plasma in Tg2576 mouse. The format is ADME. As to conditions: brain and plasma, read-out: Ratio AUC.

With `COc1ccc([C@]2(c3cccc(-c4cccnc4)c3)N=C(N)N(C)C2=O)cc1C`, the permeability with Brain stood at 15%.
On the same count and under the same terms, the same measure for `COc1ccc([C@]2(c3cccc(-c4cccnc4F)c3)N=C(N)N(C)C2=O)cc1C`: 10%.
`COc1ccc([C@]2(c3cccc(-c4cccnc4OC)c3)N=C(N)N(C)C2=O)cc1C` registered a permeability in the series with Brain of 7%.
`COc1ccc([C@]2(c3cccc(-c4cncnc4)c3)N=C(N)N(C)C2=O)cc1C`: the permeability in the series with Brain came out at 5%.
The same measure, in the same setting: the same measure for `CN1C(=O)[C@@](c2ccc(OC(F)(F)F)cc2)(c2cccc(-c3cccnc3)c2)N=C1N`: 10%.
For the compound `CN1C(=O)[C@@](c2ccc(OC(F)(F)F)cc2)(c2cccc(-c3cccnc3F)c2)N=C1N`, the permeability with Brain came to 10%.
The same measure, in the same setting: with `CN1C(=O)[C@@](c2ccc(OC(F)F)cc2)(c2cccc(-c3cc(F)cnc3F)c2)N=C1N` the figure was 9%; with `CN1C(=O)[C@@](c2ccc(OC(F)F)cc2)(c2cccc(-c3cccnc3F)c2)N=C1N`, 9%; with `CN1C(=O)[C@](c2ccccc2)(c2ccc(OC(F)F)cc2)N=C1N`, 90%.
Compound `CN1C(=O)C(c2ccccc2)(c2ccccc2)N=C1N` had a permeability in the series on Brain of 81%. In series [1], the Kp was 0.8.
Turning to `CN1C(=O)[C@@](c2ccc(OC(F)(F)F)cc2)(c2ccc(F)c(-c3cncnc3)c2)N=C1N`, the Kp in series [1] is 0.1.
On the same count and under the same terms, with `NC1=NC(c2ccccc2)(c2ccccc2)C2=NCCCN12` the figure was 1; with `COc1ccc([C@]2(c3ccc(F)c(-c4cccnc4F)c3)N=C(N)N(C)C2=O)cc1C`, 0.1.

The values are drawn from ChEMBL document CHEMBL1268920, “Design and synthesis of aminohydantoins as potent and selective human β-secretase (BACE1) inhibitors with enhanced brain permeability” (Bioorg Med Chem Lett, 2010).
